The text below walks through data of ChEMBL document CHEMBL4152252, “Fluorine walk: The impact of fluorine in quinolone amides on their activity against African sleeping sickness” (Eur J Med Chem, 2018).

The IC50 is the concentration needed to halve the response being measured. In general, CC50 refers to the concentration at which the toxic effect on the cells reaches its halfway point. Lower therefore signals harm at low concentration. As usually defined, the half-life is how long it takes for the measured level to halve. The term logP denotes a log measure of how a compound divides between an organic and an aqueous phase. A high value points to higher lipophilicity.

≈ marks a conversion by molar mass, not a printed value.

Series [1] has as its system Trypanosoma brucei brucei. The series is described as follows: Antitrypanosomal activity against trypomastigote forms of Trypanosoma brucei brucei TC 221 assessed as parasite growth inhibition after 48 hrs by Alamar blue assay. The series is classed as functional, organism-based. The note with it: TC 221, 48 h. In general terms: Resazurin is reduced to fluorescent resorufin, in cell work by metabolically active cells.

In series [2] the test system is Trypanosoma brucei brucei. The series is described as follows: Antitrypanosomal activity against trypomastigote forms of Trypanosoma brucei brucei TC 221 assessed as parasite growth inhibition after 72 hrs by Alamar blue assay. The series is classed as functional, organism-based. The note with it: TC 221, 72 h.
A short description of series [3]: Cytotoxicity against mouse J774.1 cells after 24 hrs by Alamar blue assay. The format is cell-based.
Series [4] is described as follows: Selectivity index, ratio of CC50 for mouse J774.1 cells to IC50 for trypomastigote forms of Trypanosoma brucei brucei TC 221 assessed as parasite growth inhibition after 48 hrs. The format is toxicity. Conditions: read-out: Ratio CC50/IC50.
A short description of series [5]: Half life in rat liver cytosol. The series is classed as ADME, subcellular.
Series [6] in a line: Stability in rat liver cytosol assessed as compound turnover per mg protein. The format is ADME, subcellular.
Series [7] in a line: Octanol/water partition co-efficient, log P of the compound by HPLC based method. The series is classed as physicochemical.
Series [8] can be described thus: Thermodynamic equilibrium solubility of the compound in pH 7.4 phosphate buffered saline after 24 hrs by shake flask method. The series is classed as physicochemical. The note with it: read-out: Therm_solubility.
Series [9] can be described thus: Drug metabolism in rat liver microsomes assessed as CYP450-mediated oxidative N-dealkylation by measuring 3-(benzylcarbamoyl)-1-ethyl-5-fluoro-7-morpholino-4-oxo-1,4-dihydroquinolinium formation at 100 uM using NADPH/H+ as co-factor after 30 to 90 mins by LC/MSD iom trap method. The series is classed as ADME.
A short description of series [10]: Drug metabolism in rat liver microsomes assessed as CYP450-mediated (w-1)-oxidation/alipathic hydroxylation by measuring 3-(benzylcarbamoyl)-5-fluoro-1-(3-hydroxybutyl)-7-morpholino-4-oxo-1,4-dihydroquinolinium formation at 100 uM using NADPH/H+ as co-factor after 30 to 90 mins by LC/MSD iom trap method. The series is classed as ADME. For orientation: Liver microsomes are a subcellular fraction often used to study metabolism.

The nature of series [11]: Drug metabolism in rat liver microsomes assessed as CYP450-mediated amide hydrolysis oxidative N-dealkylation by measuring 3-carbamoyl-5-fluoro-1-methyl-7-morpholino-4-oxo-1,4-dihydroquinolinium formation at 100 uM using NADPH/H+ as co-factor after 30 to 90 mins by LC/MSD iom trap method. The series is classed as ADME.
A short description of series [12]: Drug metabolism in rat liver microsomes assessed as CYP450-mediated amide hydrolysis amidase by measuring 1-butyl-3-carbamoyl-5-fluoro-7-morpholino-4-oxo-1,4-dihydroquinolinium formation at 100 uM using NADPH/H+ as co-factor after 30 to 90 mins by LC/MSD iom trap method. The series is classed as ADME.
Series [13] is described as follows: Drug metabolism in rat liver cytosol assessed as CYP450-mediated oxidative N-dealkylation by measuring 3-(benzylcarbamoyl)-1-ethyl-5-fluoro-7-morpholino-4-oxo-1,4-dihydroquinolinium formation at 100 uM using NADPH/H+ as co-factor after 30 to 90 mins by LC/MSD iom trap method. The format is ADME, subcellular.
Series [14] in a line: Drug metabolism in rat liver cytosol assessed as CYP450-mediated (w-1)-oxidation/alipathic hydroxylation by measuring 3-(benzylcarbamoyl)-5-fluoro-1-(3-hydroxybutyl)-7-morpholino-4-oxo-1,4-dihydroquinolinium formation at 100 uM using NADPH/H+ as co-factor after 30 to 90 mins by LC/MSD iom trap method. The format is ADME, subcellular.
A short description of series [15]: Drug metabolism in rat liver cytosol assessed as CYP450-mediated amide hydrolysis oxidative N-dealkylation by measuring 3-carbamoyl-5-fluoro-1-methyl-7-morpholino-4-oxo-1,4-dihydroquinolinium formation at 100 uM using NADPH/H+ as co-factor after 30 to 90 mins by LC/MSD iom trap method. The format is ADME, subcellular.
Series [16] can be described thus: Drug metabolism in rat liver cytosol assessed as CYP450-mediated amide hydrolysis amidase by measuring 1-butyl-3-carbamoyl-5-fluoro-7-morpholino-4-oxo-1,4-dihydroquinolinium formation at 100 uM using NADPH/H+ as co-factor after 30 to 90 mins by LC/MSD iom trap method. The series is classed as ADME, subcellular.
Series [17] is described as follows: Drug metabolism in rat liver microsomes assessed as CYP450-mediated 6-fluoro-3-(4-fluorobenzylcarbamoyl)-1-(3-hydroxybutyl)-7-morpholino-4-oxo-1,4-dihydroquinolinium formation at 100 uM using NADPH/H+ as co-factor after 30 to 90 mins by LC/MSD iom trap method. The format is ADME.
The nature of series [18]: Drug metabolism in rat liver microsomes assessed as CYP450-mediated 6-fluoro-3-(4-fluorobenzylcarbamoyl)-7-morpholino-4-oxo-1,4-dihydroquinolinium formation at 100 uM using NADPH/H+ as co-factor after 30 to 90 mins by LC/MSD iom trap method. The format is ADME.
Series [19] is described as follows: Drug metabolism in rat liver microsomes assessed as CYP450-mediated 1-butyl-3-carboxy-6-fluoro-7-morpholino-4-oxo-1,4-dihydroquinolinium formation at 100 uM using NADPH/H+ as co-factor after 30 to 90 mins by LC/MSD iom trap method. The format is ADME.
A short description of series [20]: Drug metabolism in rat liver microsomes assessed as CYP450-mediated 6-fluoro-3-(4-fluorobenzylcarbamoyl)-1-methyl-7-morpholino-4-oxo-1,4-dihydroquinolinium formation at 100 uM using NADPH/H+ as co-factor after 30 to 90 mins by LC/MSD iom trap method. The series is classed as ADME.
Series [21] is described as follows: Drug metabolism in rat liver cytosol assessed as CYP450-mediated 6-fluoro-3-(4-fluorobenzylcarbamoyl)-1-(3-hydroxybutyl)-7-morpholino-4-oxo-1,4-dihydroquinolinium formation at 100 uM using NADPH/H+ as co-factor after 30 to 90 mins by LC/MSD iom trap method. The format is ADME, subcellular.
Series [22] in a line: Drug metabolism in rat liver cytosol assessed as CYP450-mediated 6-fluoro-3-(4-fluorobenzylcarbamoyl)-7-morpholino-4-oxo-1,4-dihydroquinolinium formation at 100 uM using NADPH/H+ as co-factor after 30 to 90 mins by LC/MSD iom trap method. The format is ADME, subcellular.
Series [23] in a line: Drug metabolism in rat liver cytosol assessed as CYP450-mediated 1-butyl-3-carboxy-6-fluoro-7-morpholino-4-oxo-1,4-dihydroquinolinium formation at 100 uM using NADPH/H+ as co-factor after 30 to 90 mins by LC/MSD iom trap method. The format is ADME, subcellular.
The nature of series [24]: Drug metabolism in rat liver cytosol assessed as CYP450-mediated 6-fluoro-3-(4-fluorobenzylcarbamoyl)-1-methyl-7-morpholino-4-oxo-1,4-dihydroquinolinium formation at 100 uM using NADPH/H+ as co-factor after 30 to 90 mins by LC/MSD iom trap method. The format is ADME, subcellular.
Series [25] can be described thus: Solubility of the compound in RPMI-1640 medium. The series is classed as physicochemical.
Series [26] is described as follows: Drug metabolism in rat liver microsomes assessed as CYP450-mediated 5-fluoro-3-(4-fluorobenzylcarbamoyl)-1-(3-hydroxybutyl)-7-morpholino-4-oxo-1,4-dihydroquinolinium formation at 100 uM using NADPH/H+ as co-factor after 30 to 90 mins by LC/MSD iom trap method. The series is classed as ADME.
A short description of series [27]: Drug metabolism in rat liver microsomes assessed as CYP450-mediated 5-fluoro-3-(4-fluorobenzylcarbamoyl)-7-morpholino-4-oxo-1,4-dihydroquinolinium formation at 100 uM using NADPH/H+ as co-factor after 30 to 90 mins by LC/MSD iom trap method. The series is classed as ADME.
Series [28] can be described thus: Drug metabolism in rat liver microsomes assessed as CYP450-mediated 1-butyl-3-carboxy-5-fluoro-7-morpholino-4-oxo-1,4-dihydroquinolinium formation at 100 uM using NADPH/H+ as co-factor after 30 to 90 mins by LC/MSD iom trap method. The format is ADME.
Series [29] is described as follows: Drug metabolism in rat liver microsomes assessed as CYP450-mediated 5-fluoro-3-(4-fluorobenzylcarbamoyl)-1-methyl-7-morpholino-4-oxo-1,4-dihydroquinolinium formation at 100 uM using NADPH/H+ as co-factor after 30 to 90 mins by LC/MSD iom trap method. The format is ADME.
A short description of series [30]: Drug metabolism in rat liver cytosol assessed as CYP450-mediated 5-fluoro-3-(4-fluorobenzylcarbamoyl)-1-(3-hydroxybutyl)-7-morpholino-4-oxo-1,4-dihydroquinolinium formation at 100 uM using NADPH/H+ as co-factor after 30 to 90 mins by LC/MSD iom trap method. The format is ADME, subcellular.
Series [31] can be described thus: Drug metabolism in rat liver cytosol assessed as CYP450-mediated 5-fluoro-3-(4-fluorobenzylcarbamoyl)-7-morpholino-4-oxo-1,4-dihydroquinolinium formation at 100 uM using NADPH/H+ as co-factor after 30 to 90 mins by LC/MSD iom trap method. The series is classed as ADME, subcellular.
Series [32] is described as follows: Drug metabolism in rat liver cytosol assessed as CYP450-mediated 1-butyl-3-carboxy-5-fluoro-7-morpholino-4-oxo-1,4-dihydroquinolinium formation at 100 uM using NADPH/H+ as co-factor after 30 to 90 mins by LC/MSD iom trap method. The series is classed as ADME, subcellular.
The nature of series [33]: Drug metabolism in rat liver cytosol assessed as CYP450-mediated 5-fluoro-3-(4-fluorobenzylcarbamoyl)-1-methyl-7-morpholino-4-oxo-1,4-dihydroquinolinium formation at 100 uM using NADPH/H+ as co-factor after 30 to 90 mins by LC/MSD iom trap method. The series is classed as ADME, subcellular.

For the molecule `CCCCn1cc(C(=O)NCc2ccccc2)c(=O)c2c(F)cc(N3CCOCC3)cc21`, the IC50 in series [1] turned out to be 50 nM; in [2] it was 80 nM. This molecule returned a CC50 at 24 h in series [3] above 100 µM. In [4], the selectivity ratio at 48 h was above 2000. The half-life in [5] was 432 min. The Drug metabolism is given as 4.3 pmol/min/mg protein in [6]; “Metabolite_Detected” in [9]; “Metabolite_Detected” in [10]; “Metabolite_Detected” in series [11]; “Metabolite_Detected” in series [12]; “Metabolite_Detected” in series [13]. The Drug metabolism result in series [14], in series [15] and in series [16] was “Metabolite_Detected” each time. In series [7], this molecule returned a lipophilicity (logP) of 3.36. In series [8], the solubility thermodynamic at 24 h turned out to be 0.12 µg/mL (≈ 0.274 µM).
Take `CCCCn1cc(C(=O)NCc2ccc(F)cc2)c(=O)c2cc(F)c(N3CCOCC3)cc21`: the IC50 in series [1] is 50 nM; in series [2], 90 nM. The CC50 at 24 h in [3] is above 20 µM. Moreover, the selectivity ratio at 48 h in series [4] was above 400. This molecule gave a half-life in [5] of 384 min. Also, the logP in [7] came to 4.13. The Drug metabolism result in series [17], in series [18], in series [19], in [20], in series [21] and in [22] was “Metabolite_Detected” throughout. Moreover, the Drug metabolism entry in series [23] and in [24] was “Metabolite_Detected” each time. In addition, the solubility result in [25] is recorded as “Insoluble”.
For `CCCCn1cc(C(=O)NCc2ccc(F)cc2)c(=O)c2c(F)cc(N3CCOCC3)cc21`, the concentration for half-maximal inhibition (IC50) in series [1] and in series [2] was 20 nM each time. This molecule had a CC50 at 24 h in series [3] above 25 µM. The selectivity ratio at 48 h in [4] was above 1250. The molecule further had a half-life in series [5] of 462 min. The Drug metabolism is listed as 3.89 pmol/min/mg protein in series [6]; “Metabolite_Detected” in series [26]; “Metabolite_Detected” in series [27]; “Metabolite_Detected” in series [28]; “Metabolite_Detected” in [29]; “Metabolite_Detected” in [30]. Further, the Drug metabolism entry in series [31], in [32] and in series [33] was “Metabolite_Detected” each time. In series [7], this molecule displayed a logP of 3.41. The solubility result in series [25] was “Insoluble”.
